Assay results: patent US8367367B2, “Kit for positively detecting toxic material” (Samsung Electronics Co., Ltd., priority 2006, dated 2013)
Read-outs that look alike come from different tables or passages of the source.

Tests used:
[1] = system: electron transfer system of the sub-mitochondrial particles; settings: 10 min
Method: FIG. 3A is a graph illustrating the pH values at one-minute intervals when 20 wt % of ethanol, (toxic material) and 20 wt % of sorbitol (non-toxic material) are added to sub-mitochondrial particles and an electron donor to cause reactions.
FIGS. 5A and 5B illustrate an exemplary embodiment of a method of positively detecting toxic materials in which phenolphthalein is used as a pH indicator. FIG. 5A is a graph illustrating pH values at two-minute intervals when 20 wt % of ethanol (toxic material), 2.5 wt % of ethanol (toxic material), and 20 wt % of sorbitol (non-toxic material) were added to sub-mitochondrial particles and an electron donor to cause reactions. FIG. 5B is a graph and showing the final pH value of each reactant after the reaction solutions were allowed to react for 10 minutes according to the reaction described in FIG. 5A.

[2] = system: electron transfer system of the sub-mitochondrial particles
Description: NaOH was adequately added to a pH indicator, phenol red, to adjust the pH to 10. […] The reaction resultants obtained by the above process and a phenol red solution were mixed together with the weight ratio of 1:1 to identify the color of the mixture solution.

Structure (SMILES) | final pH of the reaction resultant ([1]; 20 wt %) | color of the mixture solution (phenol red) [2] | final pH of the reaction resultant ([1]; 2.5 wt %)
OC[C@@H](O)[C@@H](O)[C@H](O)[C@@H](O)CO [sorbitol] | 9.17 | remain the same | 
CCO [ethanol] | 6.43 |  | 8.16
